Source: US4771068A, “Mitomycin derivatives having anti-tumor and antibacterial utility” (priority 1985, dated 1988)
In brackets after ≈: the same amount, converted by molar mass.

What was measured:
[1] = test system: peripheral leucocytes; test: Effect on the peripheral leucocytes number; format: in vivo, mouse (ddY strain); settings: minimum dose reducing peripheral leucocytes number to 4000/mm^3; tumour-carrying ddY mice, intraperitoneal, 4 days after administration
Protocol: WBC4000 : Minimum dose of a test compound which reduces the
peripheral leucocytes number to 4000/mm^3.
Sarcoma 180 solid tumour cells (5×10^6) were subcutaneously implanted into the right axilla of each mouse (body weight 20±2 g) of a group consisting of 5 male mice (ddY strain). 24 hours after implantation,a test compound was intraperitoneally administered to each animal. 4 days after the administration, blood (each 0.02 ml) was collected from the suborbital plexus vein of each tumour-carrying animal. The collected sample of blood was dispersed in 9.98 ml of Cell-Kit Seven solution. One drop of saponin solution was added to the sample to dissolve erythrocytes and then a microcell counter was used to count the number of leucocytes. […] The relationship between the number of peripheral leucocytes and the dose of the test compound was plotted and the dose (i.e., WBC4000) corresponding to 4000 peripheral leucocytes/mm^3 (about half the number of leucocytes of normal mice) was obtained.

[2] = test system: Bacillus subtilis 10707; test: Antibacterial activity (minimum growth inhibitory concentration), agar dilution method; format: cell-based; settings: Bacillus subtilis 10707, pH 7.0, agar dilution method; read-out: minimum growth inhibitory concentration, BS
Protocol: (§1) Antibacterial activities of Compounds (I) against various bacteria are shown by the minimum growth inhibitory concentration (μg/ml) in Table 3. The minimum growth inhibitory concentration was measured at pH 7.0 according to the agar dilution method. In the table, bacteria are indicated by the following letters.
BS: Bacillus subtilis 10707

[3] = test system: Staphylococcus aureus ATCC 6538P; test: as above; format: cell-based; settings: ATCC6538P, pH 7.0, agar dilution method, read-out: minimum growth inhibitory concentration, SA
Protocol: as §1
SA: Staphylococcus aureus ATCC 6538P

[4] = Solubility in water; format: physicochemical; settings: aqueous buffer; 0.03M phosphate buffer (pH 7.0), 22° C., 15 minutes
Protocol: 1 mg of a test compound was added to 100 μl of 0.03M phosphate buffer (pH 7.0). The mixture was stirred at 22° C. for 15 minutes and filtered through Ekicrodisc 3 (disposable filter unit, Gelman Sciences Japan Co.) to remove insoluble matters. The filtrate is a saturated solution of the test compound. Predetermined amount of the saturated solution was injected into a high performance liquid chromatograph [column: YMC-A212 (C8) .phi.6 mm, 150 mm, eluting solvent: 0.01M-ammonium acetate/methanol, wave length for detection: 254 nm] and peak area of the chromatogram was calculated. Separately, a solution of the test compound in methanoL having a certain concentration of the compound was similarly subjected to the chromatography to make the calibration curve. The solubility of the test compound was calculated by the calibration curve.

[5] = test system: Klebsiella pneumoniae ATCC 10031; test: Antibacterial activity (minimum growth inhibitory concentration), agar dilution method; format: cell-based; settings: ATCC10031; Klebsiella pneumoniae ATCC 10031, pH 7.0, agar dilution method; read-out: minimum growth inhibitory concentration, KP
Protocol: as §1
KP: Klebsiella pneumoniae ATCC 10031

[6] = Acute toxicity; settings: mouse, in vivo, ip; ddY mice, intraperitoneally once, 14 days observation
Protocol: Each animal of the test group consisting of 5 ddY mice was administered intraperitoneally once with a test compound. […] The LD50 was determined by Beherns Kaerber's method.

[7] = test system: Proteus vulgalis ATCC 6897; test: Antibacterial activity (minimum growth inhibitory concentration), agar dilution method; format: cell-based; settings: pH 7, read-out: minimum growth inhibitory concentration, PV
Protocol: as §1
PV: Proteus vulgalis ATCC 6897

[8] = test system: Streptococcus faecalis ATCC 10541; test: as above; format: cell-based; settings: Enterococcus faecalis, ATCC10541; Streptococcus faecalis ATCC 10541, pH 7.0, agar dilution method; read-out: minimum growth inhibitory concentration, SF
Protocol: as §1
SF: Streptococcus faecalis ATCC 10541

[9] = test system: Sarcoma 180 solid tumour; test: animal or person; settings: for CIc: CI of test compound divided by CI of mitomycin C as control in the same condition; for ED50: Mus musculus, Sarcoma-180, iv, 168 h; for CI (LD50/ED50): chemotherapeutic index
Excerpt: CIc : Value given by division of CI of each test compound by CI of
determination of antitumour activity of the test compound. A CIc
5×10^6 cells of Sarcoma 180 solid tumour were intraperitoneally implanted into ddY mice. 7 days later, ascites cells were sampled. The cells were washed once with a sterilized physiological sodium chloride solution and were used to prepare a cell suspension containing 5×10^7 cells per ml with a sterilized physiological sodium chloride solution. On each occasion, 0.1 ml of the cell suspension was subcutaneously implanted into the right axilla of a male mouse (ddY strain; body weight 20±2 g).
The anti-tumour activity was determined in the following manner. 7 days after the implantation, the major axis (a) and the minor axis (b) of the tumour were measured to calculate a value of "a×b^2 /2" which corresponds to the volume of the tumour. The anti-tumour activity was expressed by the ratio (T/C) of the volume (T) of the tumours of the group of animals administered with the test compound to the corresponding volume (C) of tumours of the untreated animals.
On graph paper, T/C was indicated by an arithmetic scale on the longitudinal axis and the administered amount of the test compound was indicated by a logarithmic scale on the lateral axis.

SMILES	WBC4000 [1]	MIC [2]	MIC [3]	solubility at 0.25 h [4]	MIC [5]	LD50 at 336 h [6]	MIC [7]	MIC [8]	CIc [9]	ED50 [9]	CI (LD50/ED50) [9]
CO[C@@]12[C@H](COC(N)=O)C3=C(C(=O)C(C)=C(NCCSC(=O)c4ccccc4)C3=O)N1C[C@@H]1N[C@@H]12 [Compound 13]	> 5 mg/kg	< 0.02 mg/L	< 0.02 mg/L	0.073 mg/mL (≈ 146 µM)	1.3 mg/L (≈ 2.61 µM)	6 mg/kg	5 mg/L (≈ 10 µM)	0.039 mg/L (≈ 0.0782 µM)	0.91	4.1 mg/kg	1.5
C=C1C2=C(C(=O)C(C)=C(NCCSC(C)=O)C2=O)N2C[C@H]3[C@H](N3C)[C@]12O (some centres unmarked) [Compound 4]	27.1 mg/kg	6.3 mg/L (≈ 16.8 µM)	50 mg/L (≈ 133 µM)	1.9 mg/mL (≈ 5060 µM)	25 mg/L (≈ 66.6 µM)	45 mg/kg	100 mg/L (≈ 266 µM)	> 100 mg/L	1.6	14.9 mg/kg	3.0
CO[C@@]12[C@H](COC(N)=O)C3=C(C(=O)C(C)=C(NCCSC(C)=S)C3=O)N1C[C@@H]1N[C@@H]12 [Compound 26]	7.6 mg/kg	< 0.02 mg/L	< 0.02 mg/L	0.26 mg/mL (≈ 575 µM)	0.078 mg/L (≈ 0.172 µM)	6.6 mg/kg	0.63 mg/L (≈ 1.39 µM)	< 0.02 mg/L	1.6	1.2 mg/kg	5.5
CO[C@@]12[C@H](COC(N)=O)C3=C(C(=O)C(C)=C(NCCCCCCSC(C)=O)C3=O)N1C[C@@H]1N[C@@H]12 [Compound 11]	31.3 mg/kg	0.16 mg/L (≈ 0.325 µM)	0.16 mg/L (≈ 0.325 µM)	0.21 mg/mL (≈ 426 µM)	1.3 mg/L (≈ 2.64 µM)	> 200 mg/kg	2.5 mg/L (≈ 5.08 µM)	0.16 mg/L (≈ 0.325 µM)	3.9	27 mg/kg	> 7.4
CO[C@@]12[C@H](COC(N)=O)C3=C(C(=O)C(C)=C(NCCSC(C)=O)C3=O)N1C[C@H]1[C@@H]2N1C (some centres unmarked) [Compound 3]	11.0 mg/kg	< 0.02 mg/L	0.078 mg/L (≈ 0.173 µM)	3.8 mg/mL (≈ 8430 µM)	1.3 mg/L (≈ 2.89 µM)	9.4 mg/kg	20 mg/L (≈ 44.4 µM)	0.039 mg/L (≈ 0.0866 µM)	0.88	5.6 mg/kg	1.7
CO[C@@]12[C@H](COC(N)=O)C3=C(C(=O)C(C)=C(NCCSC(=O)c4ccc(Br)cc4)C3=O)N1C[C@@H]1N[C@@H]12 [Compound 21]	11.5 mg/kg	< 0.02 mg/L	< 0.02 mg/L	0.0047 mg/mL (≈ 8.14 µM)	1.3 mg/L (≈ 2.25 µM)	9.4 mg/kg	5 mg/L (≈ 8.66 µM)	0.039 mg/L (≈ 0.0675 µM)	1.9	2 mg/kg	4.7
CC(=O)SCCNC1=C(C)C(=O)C2=C(C1=O)[C@H](COC(N)=O)[C@@]1(O)[C@@H]3[C@H](CN21)N3C (some centres unmarked) [Compound 2]	14.1 mg/kg	0.78 mg/L (≈ 1.79 µM)	3.1 mg/L (≈ 7.1 µM)	8.9 mg/mL (≈ 20400 µM)	6.3 mg/L (≈ 14.4 µM)	26.3 mg/kg	25 mg/L (≈ 57.3 µM)	3.1 mg/L (≈ 7.1 µM)	1.9	5.6 mg/kg	4.7
CO[C@@]12[C@H](COC(N)=O)C3=C(C(=O)C(C)=C(NCCCSC(C)=O)C3=O)N1C[C@@H]1N[C@@H]12 [Compound 7]	> 25 mg/kg	< 0.02 mg/L	0.039 mg/L (≈ 0.0866 µM)	3.5 mg/mL (≈ 7770 µM)	0.31 mg/L (≈ 0.688 µM)	11.3 mg/kg	2.5 mg/L (≈ 5.55 µM)	< 0.02 mg/L	0.88	5.2 mg/kg	2.2
CC(=O)SCCCNC1=C(C)C(=O)C2=C(C1=O)[C@H](COC(N)=O)[C@@]1(O)[C@@H]3[C@H](CN21)N3C (some centres unmarked) [Compound 8, 7-N-(3-acetylthiopropyl)mitomycin D]		13 mg/L (≈ 28.9 µM)	> 100 mg/L	9.6 mg/mL (≈ 21300 µM)				50 mg/L (≈ 111 µM)			
CO[C@@]12[C@H](COC(N)=O)C3=C(C(=O)C(C)=C(NCCCCSC(C)=O)C3=O)N1C[C@@H]1N[C@@H]12 [Compound 9]	65.2 mg/kg	< 0.02 mg/L	0.039 mg/L (≈ 0.084 µM)	2 mg/mL (≈ 4310 µM)	0.31 mg/L (≈ 0.667 µM)	90 mg/kg	5 mg/L (≈ 10.8 µM)	< 0.02 mg/L	1.6	21.7 mg/kg	4.1
CO[C@@]12[C@H](COC(N)=O)C3=C(C(=O)C(C)=C(NCCSC(C)=O)C3=O)N1C[C@@H]1N[C@@H]12 [Compound 1, 7-N-[(2-acetylthio)ethyl]mitomycin]	9.5 mg/kg	< 0.02 mg/L	< 0.02 mg/L	5.6 mg/mL (≈ 12800 µM)	0.078 mg/L (≈ 0.179 µM)	5.6 mg/kg	1.3 mg/L (≈ 2.98 µM)	< 0.02 mg/L	1.2	2.3 mg/kg	2.4
CO[C@@]12[C@H](COC(N)=O)C3=C(C(=O)C(C)=C(NCCCCCSC(C)=O)C3=O)N1C[C@@H]1N[C@@H]12 [Compound 10]	> 75 mg/kg	0.078 mg/L (≈ 0.163 µM)	0.078 mg/L (≈ 0.163 µM)	1 mg/mL (≈ 2090 µM)	1.3 mg/L (≈ 2.72 µM)	> 75 mg/kg	5 mg/L (≈ 10.4 µM)	0.039 mg/L (≈ 0.0815 µM)	> 1.1	37.5 mg/kg	> 2.0
